Source: article PMC11943913, “Peptides from Harpadon nehereus Bone Ameliorate Sodium Palmitate-Induced HepG2 Lipotoxicity by Regulating Oxidative Stress and Lipid Metabolism” (Marine Drugs, 2025)

Columns and labels:
Nrf2 pathway = details: ref [34]; cited from earlier work
Source text: PANa triggers the buildup of reactive oxygen species (ROS) within cells, resulting in oxidative stress and subsequent cellular injury. Antioxidant enzymes are essential for alleviating oxidative stress.

FASN and ACC1 = details: ref [39]; cited from earlier work
Source text: Lipid metabolism, including lipolysis, lipogenesis, and lipid transport, determines the lipid levels in the body. FASN and ACC are two significant lipid synthetases that play a key role in lipid accumulation. PANa primarily influences hepatic lipogenesis through the modulation of FASN and ACC1 expression. […] CPT1 and ATGL are closely linked to lipolysis and are crucial for regulating lipid levels. ...

Nrf2 = test: Western blot Nrf2; type: cell-based; details: 100 μM peptide 4 h, then 350 µM PANa 24 h, HepG2, Western blot
Protocol: (§1) After treatment, cells were washed with pre-chilled PBS and lysed with ice-cold lysis buffer for 30 min. The supernatant was collected after centrifugation at 12,000× g for 10 min and stored at −80 °C. Protein concentration was determined using a BCA protein assay kit. Equal amounts of protein (20–40 µg) were subjected to 10% sodium dodecyl sulfate-polyacrylamide gel electrophoresis (SDS-PAGE) and transferred to PVDF membranes (Polyvinylidene Fluoride, Merck, Darmstadt, Germany). Non-specific binding sites were blocked with 5% bovine serum albumin (BSA) solution at room temperature for 1 h, followed by incubation with the primary antibody at 4 °C overnight. After washing with TBST (3 times, 10 min/time), the membrane was incubated with the secondary antibody at room temperature for 1 h. Following further washing with TBST (3 times, 10 min/time), antibody signals were detected using a Western blot development system. The dilution ratios for the internal reference protein, vascular endothelial injury-related proteins, and oxidative stress-related pathway proteins were prepared according to the manufacturer’s instructions.

pancreatic lipase = test: Pancreatic lipase activity inhibition; type: biochemical; details: compared with orlistat (positive control); 4-nitrophenyl palmitate substrate, lipase 1.2 mg/mL, peptide 100 μM, Tris-HCl pH 8.0, 37 °C, absorbance 405 nm, three parallel wells
Protocol: A working substrate solution consisting of 4-nitrophenyl palmitate dissolved in sodium acetate solution (containing 1% Triton-X 100, 100 mL, 5 mM, pH 5.0) was prepared. Enzyme powder was dissolved in Tris-HCl buffer (pH 8.0, 37 °C). This mixture was incubated at 4 °C for 2 h before centrifugation at 5000 r/min for 5 min, yielding the supernatant used to prepare a pancreatic lipase solution of 1.2 mg/mL. Orlistat at a concentration of 1 mg/mL in Tris-HCl buffer (pH 8.0; 37 °C) was prepared alongside DMSO to reach a concentration of 350 μg/mL peptide solution. The peptide solution of 100 μM was prepared with Tris-HCl buffer (pH = 8.0, 37 °C). The absorbance was measured at 405 nm, and the inhibition rate was measured in parallel with three holes due to the methodology of Franco et al..

triacylglycerol (TG) = test: Triacylglycerol (TG) level in HepG2; type: cell-based; details: 100 μM peptide 4 h, then 350 µM PANa 24 h, HepG2
Protocol: (§2) After incubation, cells were treated with 100 μM of peptides for 4 h. After removing the media, PANa was added for 24 h of incubation. The levels of catalase (CAT), superoxide dismutase (SOD), glutathione peroxidase (GSH-Px), malondialdehyde (MDA), triacylglycerol (TG), total cholesterol (TCHO), low-density lipoprotein cholesterol (LDL-C), and high-density lipoprotein cholesterol (HDL-C) in the supernatant were determined according to the kit instructions.

[1] = tested on: fatty acid synthase (FASN); test: Western blot FASN; type: cell-based; details: 100 μM peptide 4 h, then 350 µM PANa 24 h, HepG2, Western blot
Protocol: as §1

[2] = tested on: low-density lipoprotein cholesterol (LDL-C); test: LDL-C level in HepG2; type: cell-based; details: 100 μM peptide 4 h, then 350 µM PANa 24 h, HepG2
Protocol: as §2

[3] = tested on: glutathione peroxidase (GSH-Px); test: Glutathione peroxidase (GSH-Px) activity in HepG2; type: cell-based; details: 100 μM peptide 4 h, then 350 µM PANa 24 h, HepG2
Protocol: as §2

NQO1 = test: Western blot NQO1; type: cell-based; details: 100 μM peptide 4 h, then 350 µM PANa 24 h, HepG2, Western blot
Protocol: as §1

[4] = tested on: high-density lipoprotein cholesterol (HDL-C); test: HDL-C level in HepG2; type: cell-based; details: 100 μM peptide 4 h, then 350 µM PANa 24 h, HepG2
Protocol: as §2

HO-1 = test: Western blot HO-1; type: cell-based; details: 100 μM peptide 4 h, then 350 µM PANa 24 h, HepG2, Western blot
Protocol: as §1

catalase (CAT) = test: Catalase (CAT) activity in HepG2; type: cell-based; details: 100 μM peptide 4 h, then 350 µM PANa 24 h, HepG2
Protocol: as §2

malondialdehyde (MDA) = test: Malondialdehyde (MDA) level in HepG2; type: cell-based; details: 100 μM peptide 4 h, then 350 µM PANa 24 h, HepG2
Protocol: as §2

[5] = tested on: phosphorylated ACC1 (p-ACC1); test: Western blot p-ACC1; type: cell-based; details: 100 μM peptide 4 h, then 350 µM PANa 24 h, HepG2, Western blot
Protocol: as §1

HepG2 cells [6] = test: CCK-8 proliferation of HepG2 with peptide alone; type: cell-based; details: concentrations below 200 µM, 24 h, CCK-8, n = 3
Protocol: HepG2 cells were cultured in DMEM supplemented with penicillin at a concentration of 100 U/mL, streptomycin at 100 μg/mL, and fetal bovine serum at a volume ratio of 10% under conditions of 37 °C and 5% CO2. A total of 2 ×10^4 cells per well were seeded into a 96-well plate for overnight culture. The upper layer of medium was carefully aspirated, and 200 μL of different concentrations of oligopeptide solution (50 μM, 100 μM, 200 μM) prepared with cell complete medium was added to each well. Twenty-four hours later, the proliferation rate of the cells was measured according to the instructions of the CCK-8 kit, and the appropriate concentration of oligopeptide was screened out.

[7] = tested on: proteins associated with lipid metabolism; test: Western blot, proteins associated with lipid metabolism overall; type: cell-based; details: 100 μM peptide 4 h, then 350 µM PANa 24 h, HepG2, Western blot
Protocol: as §1

[8] = tested on: superoxide dismutase (SOD); test: Superoxide dismutase (SOD) activity in HepG2; type: cell-based; details: 100 μM peptide 4 h, then 350 µM PANa 24 h
Protocol: as §2

total cholesterol (TCHO) = test: Total cholesterol (TCHO) level in HepG2; type: cell-based; details: 100 μM peptide 4 h, then 350 µM PANa 24 h, HepG2
Protocol: as §2

HepG2 cells [9] = test: Cell viability of PANa-induced HepG2 (CCK-8); type: cell-based; details: 100 μM peptide 4 h, then 350 µM PANa 24 h, **** p < 0.0001 vs PANa group
Protocol: A total of 2 × 10^4 cells/well were inoculated in 96-well plates for culture at 37 °C and 5% CO2. Following this period, the cells received treatment with 200 μL medium containing 100 μM LR-7, KA-8, or PG-7 for 4 h before adding 350 μM PANa to each well. After incubation for an additional 24 h, the cell proliferation rates were assessed using the CCK-8 assay protocols.

HUVECs = details: earlier work, ref [21]; cited from earlier work
Source text: Harpadon nehereus, a nutrient-rich marine species indigenous to the Indo-Pacific region, remains underexploited despite its significant collagen content (18–22% wet weight). Harpadon nehereus serves as an economical source that is rich in protein and trace elements. Its proteins and derived peptides offer numerous health benefits including immune enhancement, blood pressure reduction, cardiovascular protection, and inflammation mitigation. In prior research, we successfully isolated three novel peptides LALFVPR (LR-7), KLHDEEVA (KA-8), and PSRILYG (PG-7) from the enzymatic hydrol ... || Studies have confirmed that oxidative stress and lipid metabolism disorders are significant factors in the occurrence and development of hyperlipidemia Dietary intervention is a crucial auxiliary strategy for the management of hyperlipidemia. Collagen peptides have been extensively used as a nutritional intervention in the treatment of various diseases due to their notable antioxidant, anti-inflammatory, and hypolipidemic activities. […] Anoth ...

inhibition of pancreatic lipase activity (pancreatic lipase) | GSH-Px activity, reversal of PANa-induced reduction [3] | CAT activity, reversal of PANa-induced reduction (catalase (CAT)) | SOD activity, reversal of PANa-induced reduction [8] | Compound | hepatic steatosis, oxidative stress, inflammatory cell infiltration and fibrosis via Nrf2 pathway (Nrf2 pathway) | expression levels of FASN and ACC1 / lipid accumulation (FASN and ACC1) | Nrf2 protein level (Nrf2) | TG, effect on PANa-induced increase (triacylglycerol (TG)) | FASN expression vs PANa group [1] | LDL-C, effect on PANa-induced increase [2] | NQO1 protein level (NQO1) | HDL-C, effect on PANa-induced decrease [4] | HO-1 protein level (HO-1) | MDA level (malondialdehyde (MDA)) | p-ACC1 level vs PANa group [5] | effect on apoptosis of HepG2 cells (HepG2 cells [6]) | abnormal expression of proteins associated with lipid metabolism by PANa (FASN, ATGL, CPT1, p-AMPKα) [7] | TCHO, effect on PANa-induced increase (total cholesterol (TCHO)) | cell viability of PANa-exposed HepG2 (HepG2 cells [9]) | effect on angiotensin II-induced dysfunctions within HUVECs (HUVECs)
 |  |  |  | COc1ccc([C@@H]2CC(=O)c3c(O)cc(O)cc3O2)cc1O [hesperetin] | reduce hepatic steatosis, alleviate oxidative stress, decrease inflammatory cell infiltration, and mitigate fibrosis through activation of the Nrf2 pathway |  |  |  |  |  |  |  |  |  |  |  |  |  |  | 
 |  |  |  | Oc1ccc2c(c1)OCO2 [sesamol (SEM), sesamol] |  | influence lipid accumulation by decreasing the expression levels of FASN and ACC1 |  |  |  |  |  |  |  |  |  |  |  |  |  | 
comparable results to orlistat | effectively reversed the reduction | effectively reversed the reduction | effectively reversed the reduction | KLHDEEVA [KA-8, peptide from Harpadon nehereus bone collagen enzymatic hydrolysates] |  |  | significant increases in the levels | notably reversed the PANa-induced increases | FASN expression decreased | notably reversed the PANa-induced increases | significant increases in the levels | notably reversed | significant increases in the levels | significantly decreased the MDA levels | p-ACC1 levels increased significantly | no effect on the apoptosis of HepG2 cells | significantly reversed | notably reversed the PANa-induced increases | notably enhanced the cell viability | 
less effective than orlistat | effectively reversed the reduction | effectively reversed the reduction | effectively reversed the reduction | PSRILYG [PG-7, peptide from Harpadon nehereus bone collagen enzymatic hydrolysates] |  |  | significant increases in the levels | notably reversed the PANa-induced increases | FASN expression decreased | notably reversed the PANa-induced increases | significant increases in the levels | notably reversed | significant increases in the levels | significantly decreased the MDA levels | p-ACC1 levels increased significantly | no effect on the apoptosis of HepG2 cells | significantly reversed | notably reversed the PANa-induced increases | notably enhanced the cell viability | improve angiotensin II-induced dysfunctions within HUVECs
